Experimental data: paper PMC2116235 (The Journal of Cell Biology, 1990)
Blank lines part the entries; values can stand above or below the substance they belong to.

Tests used:
[1] = system: adhesion of bovine aortic endothelial cells to type IV collagen; test: Competition of endothelial cell binding to type IV collagen by peptides; format: cell-based; conditions: ~5 µg (100 µg/ml) peptide; type IV collagen coated at 10 µg/ml; 60 min at 37C
[2] = system: microvascular endothelial cells; test: Adhesion of microvascular endothelial cells; format: cell-based; conditions: preliminary observations
[3] = cited from earlier work
[4] = system: bovine aortic endothelial cells; test: Cell spreading assay; format: cell-based; conditions: 37C
[5] = system: bovine aortic endothelial cells; test: Binding of 125I-Hep-I to endothelial cells in solution, direct and competition; conditions: 5 µg 125I-Hep-I; unlabeled peptide up to 400-fold excess, 4C, 20 min
type IV collagen [6] = target: T1, type IV collagen (Mus musculus, UniProt P02463+P08122); test: Solid phase binding of 125I-peptides to type IV collagen; design: species or system murine (EHS tumor); conditions: 37C, 2 h; for Competition of bound 125I-peptide by unlabeled corresponding peptide: 5 µg 125I-peptide, unlabeled peptide up to 400-fold excess (2 mg/ml)
T1 sequence (P02463 173-1669): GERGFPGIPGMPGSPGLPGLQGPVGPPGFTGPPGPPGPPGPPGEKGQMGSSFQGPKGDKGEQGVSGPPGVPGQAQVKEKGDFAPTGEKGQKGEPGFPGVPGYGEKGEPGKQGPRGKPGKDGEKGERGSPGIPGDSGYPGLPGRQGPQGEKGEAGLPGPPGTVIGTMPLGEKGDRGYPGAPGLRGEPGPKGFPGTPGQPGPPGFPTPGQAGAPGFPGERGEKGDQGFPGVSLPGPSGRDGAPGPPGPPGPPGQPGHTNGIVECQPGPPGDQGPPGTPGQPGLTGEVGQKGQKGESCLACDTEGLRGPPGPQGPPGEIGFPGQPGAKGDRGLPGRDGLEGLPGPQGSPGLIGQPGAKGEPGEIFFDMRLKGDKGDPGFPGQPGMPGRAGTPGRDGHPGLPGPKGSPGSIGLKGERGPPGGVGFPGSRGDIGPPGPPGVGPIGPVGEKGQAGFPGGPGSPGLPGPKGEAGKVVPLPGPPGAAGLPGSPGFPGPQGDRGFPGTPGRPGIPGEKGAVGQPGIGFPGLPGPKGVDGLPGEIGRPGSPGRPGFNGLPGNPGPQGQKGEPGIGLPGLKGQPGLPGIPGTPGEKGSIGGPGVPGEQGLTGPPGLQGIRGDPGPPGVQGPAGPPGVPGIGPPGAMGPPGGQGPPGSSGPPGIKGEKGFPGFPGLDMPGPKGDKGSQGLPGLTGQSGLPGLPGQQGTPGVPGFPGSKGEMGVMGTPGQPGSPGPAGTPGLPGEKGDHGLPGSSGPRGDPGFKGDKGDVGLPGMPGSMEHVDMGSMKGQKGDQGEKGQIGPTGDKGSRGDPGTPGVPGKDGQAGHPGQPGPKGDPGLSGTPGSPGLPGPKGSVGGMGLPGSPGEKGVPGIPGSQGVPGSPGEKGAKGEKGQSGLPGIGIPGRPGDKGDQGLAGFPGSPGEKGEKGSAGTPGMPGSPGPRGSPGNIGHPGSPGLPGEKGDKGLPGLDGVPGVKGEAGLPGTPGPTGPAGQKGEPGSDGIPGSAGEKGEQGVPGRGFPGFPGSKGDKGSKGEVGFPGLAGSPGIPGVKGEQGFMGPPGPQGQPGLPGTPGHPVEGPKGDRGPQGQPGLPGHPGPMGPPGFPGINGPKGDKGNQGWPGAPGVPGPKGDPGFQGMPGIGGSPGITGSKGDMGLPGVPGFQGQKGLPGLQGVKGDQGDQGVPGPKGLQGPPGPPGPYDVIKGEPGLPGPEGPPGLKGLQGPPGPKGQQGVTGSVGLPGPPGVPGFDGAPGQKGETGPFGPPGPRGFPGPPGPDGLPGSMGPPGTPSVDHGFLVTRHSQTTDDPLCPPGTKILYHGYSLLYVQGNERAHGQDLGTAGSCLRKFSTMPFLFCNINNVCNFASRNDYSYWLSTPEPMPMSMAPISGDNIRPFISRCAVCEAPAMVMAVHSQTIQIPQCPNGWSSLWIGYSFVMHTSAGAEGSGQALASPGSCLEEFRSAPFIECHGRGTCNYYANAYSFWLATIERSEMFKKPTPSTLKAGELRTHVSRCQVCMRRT
T1 sequence (P08122 29-1707 limits assumed): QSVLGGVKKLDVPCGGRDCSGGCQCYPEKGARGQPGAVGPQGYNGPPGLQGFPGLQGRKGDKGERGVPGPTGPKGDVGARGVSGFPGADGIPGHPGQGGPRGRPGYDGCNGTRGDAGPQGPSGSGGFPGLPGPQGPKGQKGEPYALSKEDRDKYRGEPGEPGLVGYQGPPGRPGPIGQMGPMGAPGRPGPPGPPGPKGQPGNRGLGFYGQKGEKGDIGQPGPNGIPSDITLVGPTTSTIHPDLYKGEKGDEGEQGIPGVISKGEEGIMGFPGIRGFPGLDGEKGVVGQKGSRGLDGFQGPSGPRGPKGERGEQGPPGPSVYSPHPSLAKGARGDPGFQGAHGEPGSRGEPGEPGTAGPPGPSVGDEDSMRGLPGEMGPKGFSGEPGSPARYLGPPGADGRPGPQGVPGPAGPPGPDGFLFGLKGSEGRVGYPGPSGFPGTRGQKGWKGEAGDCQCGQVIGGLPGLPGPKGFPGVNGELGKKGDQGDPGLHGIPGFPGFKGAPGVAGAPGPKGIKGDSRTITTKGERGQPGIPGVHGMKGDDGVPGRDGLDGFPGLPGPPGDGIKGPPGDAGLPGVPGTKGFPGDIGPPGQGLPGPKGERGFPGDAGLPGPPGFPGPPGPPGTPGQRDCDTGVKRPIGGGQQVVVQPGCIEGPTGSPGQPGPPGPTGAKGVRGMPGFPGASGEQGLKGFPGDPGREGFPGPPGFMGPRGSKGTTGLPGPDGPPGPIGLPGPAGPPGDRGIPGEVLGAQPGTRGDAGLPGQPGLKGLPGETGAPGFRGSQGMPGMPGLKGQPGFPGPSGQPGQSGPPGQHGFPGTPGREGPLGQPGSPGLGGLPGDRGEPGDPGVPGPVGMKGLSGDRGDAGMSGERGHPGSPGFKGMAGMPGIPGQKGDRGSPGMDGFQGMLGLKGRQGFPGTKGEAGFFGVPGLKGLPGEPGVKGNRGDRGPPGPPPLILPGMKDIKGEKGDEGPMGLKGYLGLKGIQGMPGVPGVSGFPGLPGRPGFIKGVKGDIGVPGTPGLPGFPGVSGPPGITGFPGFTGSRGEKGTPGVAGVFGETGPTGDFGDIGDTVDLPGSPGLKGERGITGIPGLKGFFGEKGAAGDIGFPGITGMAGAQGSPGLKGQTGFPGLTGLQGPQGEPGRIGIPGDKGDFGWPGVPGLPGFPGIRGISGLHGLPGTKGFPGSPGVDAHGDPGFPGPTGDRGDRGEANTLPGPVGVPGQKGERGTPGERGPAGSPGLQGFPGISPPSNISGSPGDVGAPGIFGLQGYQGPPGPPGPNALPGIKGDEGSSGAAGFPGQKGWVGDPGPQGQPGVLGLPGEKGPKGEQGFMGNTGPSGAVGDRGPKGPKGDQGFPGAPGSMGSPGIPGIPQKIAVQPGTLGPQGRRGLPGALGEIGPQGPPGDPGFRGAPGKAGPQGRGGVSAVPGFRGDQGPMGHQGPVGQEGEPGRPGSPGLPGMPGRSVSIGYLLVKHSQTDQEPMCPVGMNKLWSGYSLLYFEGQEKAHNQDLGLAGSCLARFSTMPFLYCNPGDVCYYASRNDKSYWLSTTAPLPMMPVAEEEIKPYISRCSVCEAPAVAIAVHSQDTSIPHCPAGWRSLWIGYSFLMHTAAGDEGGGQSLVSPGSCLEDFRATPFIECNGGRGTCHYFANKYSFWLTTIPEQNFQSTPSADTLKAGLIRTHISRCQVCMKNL

type IV collagen [7] = conditions: cited from earlier work
BSA = test: Nonspecific binding of peptide to BSA-coated plastic; conditions: BSA coated onto plastic; all concentrations used; data not shown
murine melanoma cells = test: Adhesion of murine melanoma cells; format: cell-based; conditions: preliminary observations
[8] = system: adhesion of bovine aortic endothelial cells to NC1 domain; test: Competition of endothelial cell binding to NC1 domain by peptides; format: cell-based
type IV collagen [9] = target: T1, type IV collagen; test: Turbidity of type IV collagen assembly; format: biochemical, murine (EHS tumor); conditions: peptide 100 µg/ml with type IV collagen-NC1 domain mixtures, 37C, 360 nm
[10] = system: adhesion of bovine aortic endothelial cells to type IV collagen; format: cell-based; conditions: type IV collagen 1-60 µg/ml; glycosaminoglycan up to 10 mg/ml; 60 min at 37C
[11] = target: intact type IV collagen (EHS tumor) (mouse (endogenous in the EHS tumor)); test: rotary shadowing electron microscopy
[12] = system: bovine aortic endothelial cells; test: Direct solid phase cell-binding; format: cell-based; conditions: 35S-labeled cells, 37C, 30-60 min
[13] = system: bovine aortic endothelial cells; conditions: as compared to fibronectin or laminin; cited from earlier work
[14] = 30 min, substrate type IV collagen 10 µg/ml or peptide Hep-I 20 µg/ml

Competition of bound 125I-peptide by unlabeled corresponding peptide (type IV collagen [6]): efficient competition | Nonspecific binding of the peptide to BSA, of total binding to type IV collagen (BSA): < 2%
Substance: TAGSCLRKFSTM [peptide Hep-I]
Maximal inhibition of adhesion to type IV collagen [1]: ~ 50% | Adhesion of microvascular endothelial cells [2]: also adhered | Binding to heparin [3]: specifically bound heparin | Spread cells, of attached endothelial cells [4, 14]: ~ 60% | Spread cells, of attached endothelial cells ([4]; 60 min, peptide Hep-I substrate 20 µg/ml): 83% | Spread cells, of attached endothelial cells ([4]; 90 min, peptide Hep-I substrate 20 µg/ml): 84% | Competition for binding of 125I-Hep-I to endothelial cells [5]: efficiently competed | Inhibition of the binding of heparin to type IV collagen (type IV collagen [7]): dose-dependent manner | Adhesion of murine melanoma cells (murine melanoma cells): also adhered | Endothelial cell adhesion to NC1 domain ([8]; 1 µg (20 µg/ml) peptide, NC1 coated 20 µg/ml, 100% = no inhibitor, 60 min at 37C): ≤ 20% | Inhibition of cell adhesion on NC1 domain substrates ([8]; substrates coated with NC1 domain (Discussion)): ~ 80%

Additive effect on maximal turbidity (type IV collagen [9]): did not have any additive effect
Substance: MFKKPTPSTLKAGELR [peptide 4]

Substance: heparin
Effect on endothelial cell binding to type IV collagen [10]: unaffected

Additive effect on maximal turbidity (type IV collagen [9]): did not have any additive effect | Competition of bound 125I-peptide by unlabeled corresponding peptide (type IV collagen [6]): could not be competed | Nature of binding to type IV collagen (type IV collagen [6]; solid phase, 125I-peptide, pH 7.4): this binding should not be specific
Substance: DPLCPPGTKIL [peptide 1]

Substance: intact type IV collagen (EHS tumor) (complex)
percent of the total type IV collagen in the lattice [11]: 74%

Substance: GDSRTITTKGERGQP [peptide ET-2]
Competition for binding of 125I-Hep-I to endothelial cells [5]: failed to compete

Substance: BSA: control coating protein [reference compound]
Adhesion of added endothelial cells in spreading experiment ([4]; BSA substrate 5 µg/ml, all time intervals (30-90 min)): 1.7-2.2%

Substance: GRGDSP [reference compound]
Effect on endothelial cell adhesion to NC1 domain ([8]; up to 500 µg/ml inhibitor, NC1 coated 20 µg/ml, 60 min at 37C): did not have any effect

Substance: type IV collagen: type IV collagen isolated from the EHS tumor, a murine tumor
Adhesion of added endothelial cells ([12]; coated at 0.05 µg/well, ~5,000/well): ~ 20% | Adhesion of added endothelial cells ([12]; coated at 5 µg/well): ~ 40% | Binding to heparin [3]: specifically bound heparin | Spread cells, of attached endothelial cells [4, 14]: ~ 92.8% | Preferential adhesion of aortic endothelial cells [13]: preferably adhered
